Assay results taken from the CATMoS acute toxicity set (Mansouri et al. 2021).
*1 amine or outer side, *2 acyl side, *3 side chain or, on linkers, in order; H or OH if unused. Where a SMILES comes first, the peptide text is derived from it. Bridges are numbered along the chain shown (N, C = ends). [ ]: non-standard residue; d: D form. The star is where a group is joined. X5 = O=C(NC(=O)[*:2])C(N[*:1])c1cc(Cl)c(O)c(Cl)c1; X3 = NCCCCN(C(=O)C(N[*:1])c1ccc(O)cc1)C(=O)[*:2]; X4 = NC1=NC(CC(N[*:1])C(=O)[*:2])CN1; Hpg = N[CH](C(=O)O)c1ccc(O)cc1; X2 = CCC(C)CCCC/C=C/C=C/C(=O)*; Cit = NC(=O)NCCC[CH](N)C(=O)O

Assay: GHS categories as the set defines them, by LD50: 1 up to 5, 2 up to 50, 3 up to 300, 4 up to 2000, 5 above 2000 mg/kg
Conditions: rat; in vivo; po

Row | SMILES | GHS category
1 | CCCc1c(Cc2ccc(-c3oc(Br)cc3-c3nn[nH]n3)cc2)c(=O)nc2nc[nH]n12 | 4
2 | CCCS(=O)(=O)Nc1ccc(F)c(C(=O)c2cn(C(=O)c3c(Cl)cccc3Cl)c3ncc(-c4ccc(Cl)cc4)cc23)c1F | 5
3 | NC1CCN(c2nc3c(cc2F)c(=O)c(C(=O)O)cn3-c2ccc(F)cc2F)C1 (stereo not given) | 5
4 | CCC(C)CCC(C)(CC)OC(C)=O (stereo not given) | 5
5 | NC(=O)NC1CCC(=O)c2sccc21 (stereo not given) | 5
6 | CCCCNC(=O)c1cnc2cccc(C)n2c1=O | 3
7 | COc1ccc2c(c1)CCN(c1ccccc1)C2c1ccc(OCc2ccccc2)cc1 (stereo not given) | 4
8 | CC(=O)Nc1c(I)c(C(=O)N[C@H]2C(O)O[C@H](CO)[C@@H](O)[C@@H]2O)c(I)c(N(C)C(C)=O)c1I (stereo not given in full) | 5
9 | O=C(Nc1ccc(Cl)cc1)c1cc2ccccc2cc1O | 5
10 | CC(C)CCCC(C)CCCC(C)CCCCC(C)CCCC(C)CCCC(C)C (stereo not given) | 4
11 | CCCS(=O)(=O)Nc1ccc(F)c(C(=O)c2cn(C(=O)c3c(Cl)cccc3Cl)c3ncc(Br)cc23)c1F | 5
12 | CN[C@H](CC(C)C)C(=O)N[C@H]1C(=O)N[C@@H](CC(N)=O)C(=O)N[C@H]2C(=O)N[C@H]3C(=O)N[C@H](C(=O)N[C@@H](C(=O)O)c4cc(O)cc(O)c4-c4cc3ccc4O)[C@H](O)c3ccc(c(Cl)c3)Oc3cc2cc(c3O[C@@H]2O[C@H](CO)[C@@H](O)[C@H](O)[C@H]2O[C@H]2C[C@](C)(N)C(O)[C@H](C)O2)Oc2ccc(cc2Cl)[C@H]1O (stereo not given in full) | 5
13 | c1ccc2sc(SN3CCOCC3)nc2c1 | 5
14 | NC(=O)O | 4
15 | C/C(=C\CO)CCC[C@H](C)CCC[C@H](C)CCCC(C)C | 5
16 | COCC1COC(Cn2cncn2)(c2cc3cc(Cl)cc(Cl)c3o2)O1 (stereo not given) | 4
17 | Oc1c(I)cc(Cl)c2cccnc12 | 5
18 | O=C(Cc1cccs1)N[C@@H]1C(=O)N2C(C(=O)O)=C(CO)CS[C@H]12 | 5
19 | COC(=O)C1=C(C)NC(C)=C(C(=O)O)C1c1cc([N+](=O)[O-])ccc1F (stereo not given) | 5
20 | COc1ccccc1N=NC(C(C)=O)C(=O)Nc1ccc2[nH]c(=O)[nH]c2c1 (stereo not given) | 5
21 | O=C[C@H](O[C@@H](C=O)[C@@H](O)[C@H](O)[C@H](O)CO)[C@@H](O)[C@H](O)[C@H](O)CO | 5
22 | COc1ccc(OC(=O)c2ccccc2OC(N)=O)cc1 | 5

Row | SMILES | GHS category
23 | CCCCCCNC(=O)c1cnc2cccc(C)n2c1=O | 3
24 | O=C1COc2cc(C(=O)c3ccc(Cl)cc3)ccc2N1 | 5
25 | CC1(C)COB(OCC(C)(C)COB2OCC(C)(C)CO2)OC1 | 5
26 | CCCCCCCCCCCCCCCC(=O)O | 5
27 | CCCc1c(Cc2ccc(-c3ncccc3-c3nn[nH]n3)cc2)c(=O)nc2nc[nH]n12 | 4
28 | N#Cc1ccc(C#N)cc1 | 5
29 | O=C(CCCCC(=O)N(CCO)CCO)N(CCO)CCO | 5
30 | COc1ccccc1OCCNCC(O)c1ccc(C)c(S(N)(=O)=O)c1 (stereo not given) | 5
31 | CCOC(=O)C(Cl)C(=O)OCC | 4
32 | CCCC(=NOCC(C)Oc1ccc(Cl)cc1)C1=C(O)CC(C2CCCSC2)CC1=O (stereo not given) | 5
33 | CCCCC/C=C\C/C=C\CCCCCCCC(=O)NC(C)c1ccccc1 (stereo not given) | 5
34 | COc1ccc(OCCCCN2CCN(CCc3cc(OC)c(OC)c(OC)c3)CC2)c(C2Sc3ccccc3N2C(C)=O)c1 (stereo not given) | 4
35 | Cc1ccc(C2CC(=O)C(C(=O)CCc3ccc4c(c3)OCO4)C(=O)C2)cc1 (stereo not given) | 5
36 | COC(=O)CC(C(C)=O)C(=O)OC (stereo not given) | 5
37 | CNC(=O)N(C)c1nc2ccccc2s1 | 5
38 | CCOC(=O)c1cnn(-c2cccc(C)c2)c1S(C)(=O)=O | 4
39 | CC1CC(OC(=O)COc2cccc(C(F)(F)F)c2)CC(C)(C)C1 (stereo not given) | 5
40 | CN1C(=CC=O)C(C)(C)c2ccccc21 | 3
41 | Cc1ccc(N=Nc2c(O)c(C(=O)O)cc3ccccc23)c(S(=O)(=O)O)c1 | 5
42 | C=CC(C)(CCC=C(C)C)OC(C)OCC (stereo not given) | 5
43 | O=[N+]([O-])c1ccc2c(c1)COP(=S)(N1CCCC1)O2 (stereo not given) | 3
44 | COC(=O)NC(=S)Nc1ccc(OCc2ccccc2)cc1[N+](=O)[O-] | 5

Row | SMILES | GHS category
45 | Nc1ccc(S(=O)(=O)Nc2ncccn2)cc1 | 5
46 | CCCCCCCCNC(C)C(O)c1ccc2c(c1)CCCS2 (stereo not given) | 5
47 | CCCc1c(Cc2ccc(-c3sccc3-c3nn[nH]n3)cc2)c(=O)nc2nc[nH]n12 | 4
48 | CNC(=O)C(=NNc1ccc([N+](=O)[O-])cc1OC)C(C)=O | 5
49 | Cc1c([N+](=O)[O-])cc2c(c1[N+](=O)[O-])C(C)(C)CC2(C)C | 5
50 | CCOC1(c2ccco2)CCN(CCc2ccccc2)CC1C (stereo not given) | 2
51 | C=CCN1C(=O)CCc2c(OCC(O)CN3CCC(Cc4ccccc4)CC3)cccc21 (stereo not given) | 4
52 | OCC(CBr)(CBr)CBr | 5
53 | CCCC(=O)OC | 5
54 | O=C1CCCCCCCCCCOCCCCO1 | 5
55 | COc1ccc(COC(=O)Cc2ccccc2)cc1 | 5
56 | O=C(OOC(=O)c1ccc(Cl)cc1Cl)c1ccc(Cl)cc1Cl | 5
57 | O=C(Nc1ccccc1-c1ccc(Cl)cc1)c1cccnc1Cl | 5
58 | COc1cc(S(=O)(=O)O)c(C)cc1NC(=O)CC(C)=O | 5
59 | CCOCC(O)COc1ccc(NC(=O)CC[S+](C)C)cc1 (stereo not given) | 5
60 | CCC(COC(=O)c1cc(OC)c(OC)c(OC)c1)(c1ccccc1)N(C)C (stereo not given) | 5
61 | CCC(C)CCCC/C=C/C=C/C(=O)NC(CC(=O)O)C(=O)NC1C(=O)NC(c2ccc(O)cc2)C(=O)N(CCCCN)C(=O)NC(C(C)O)C(=O)NC(c2ccc(O)cc2)C(=O)NC(c2ccc(O)cc2)C(=O)NC(C(C)O)C(=O)NC(CCCNC(N)=O)C(=O)NC(CC2CNC(N)=N2)C(=O)NC(c2ccc(O)cc2)C(=O)NC(CO)C(=O)NC(c2cc(Cl)c(O)c(Cl)c2)C(=O)NC(=O)NC(CC2CNC(N)=N2)C(=O)NC(C)C(=O)NC(c2ccc(O)cc2)C(=O)OC1C (stereo not given) (X2-DT[X3]T[Hpg][Hpg]T[Cit][X4][Hpg]S[X5][X4]A[Hpg]; ester 2-C; configuration not given here) | 5
62 | CCCCCCCCCCCCCC | 5
63 | O=C1c2c(Cl)c(Cl)c(Cl)c(Cl)c2C(=O)C1c1ccc2cccc(N3C(=O)c4c(Cl)c(Cl)c(Cl)c(Cl)c4C3=O)c2n1 | 5
64 | Cn1nnnc1SCCCSc1ccncc1 | 4
65 | COc1ccc(Cl)cc1N/C(=N/C1CCCCC1)c1ccccc1C | 4
66 | COc1cc2nc(N3CCC(N(C)C(=O)c4ccco4)CC3)nc(N)c2cc1OC | 4

Row | SMILES | GHS category
67 | Cc1cnc2c(C(=O)O)c(Cl)ccc2c1 | 5
68 | CC(C)(C)c1ccc(OC(=O)C2CCC(CN=C(N)N)CC2)cc1 (stereo not given) | 2
69 | CNc1cc(OC)c(C(=O)N[C@H]2CCN(Cc3ccccc3)[C@H]2C)cc1Cl | 4
70 | Cc1ccc(C(C)C)cc1OC(=O)c1ccccc1Nc1cccc(C)c1C | 5
71 | CCCCOC(=O)[C@@H](C)Oc1ccc(Oc2ccc(C#N)cc2F)cc1 | 5
72 | CC(CO)C1CCCCCCCCCCC1 (stereo not given) | 5
73 | FC(F)(F)C(F)(F)C(F)(F)C(F)(F)N(C(F)(F)C(F)(F)C(F)(F)C(F)(F)F)C(F)(F)C(F)(F)C(F)(F)C(F)(F)F | 5
74 | N#CNC1=NCCS1 | 4
75 | CN(C)CC(=O)O | 4
76 | CCC1(C)COC(Cn2cncn2)(c2cc3ccccc3o2)OC1 (stereo not given) | 4
77 | COc1ccc2c(c1)CCN(c1ccccc1)C2c1ccc(Br)cc1 (stereo not given) | 4
78 | CCOC(=O)CCCCC(=O)OCC | 4
79 | Cn1c(=O)n(-c2ccccc2)c2cc(Cl)ccc21 | 4
80 | CCCC(O)CCO (stereo not given) | 5
81 | CCN(C(=O)Oc1cccc(NC(=O)OC(C)C)c1)c1ccccc1 | 5
82 | CC(=O)O[C@]1(C(C)=O)CC[C@H]2[C@@H]3C[C@H](C)C4=CC(=O)CC[C@]4(C)[C@H]3CC[C@@]21C | 5
83 | Cc1ccc(-n2nccn2)c(C(=O)O)c1 | 5
84 | CCCC(=O)O[C@]1(C(=O)CO)CC[C@H]2[C@@H]3CCC4=CC(=O)CC[C@]4(C)[C@H]3[C@@H](O)C[C@@]21C | 5
85 | O=c1c2cc(Cl)ccc2[nH]c2cc3c(=O)c4cc(Cl)ccc4[nH]c3cc12 | 5
86 | COC(OC)N(C)C | 5
87 | Nc1nc(N)nc(NC(=O)NC(=O)c2ccc(Cl)cc2)n1 | 5
88 | CO[Si](OC)(C1CCCC1)C1CCCC1 | 5

Row | SMILES | GHS category
89 | O=COC1CCC2CCCCC2C1 (stereo not given) | 5
90 | CCCCCCCCCCCCCCCc1cccc(OC(=O)c2cc(Cl)ccc2OC(N)=O)c1 | 5
91 | CCCCC(CC)C(=O)OC (stereo not given) | 5
92 | Clc1ccc(C2=NCOCS2)cc1 | 4
93 | c1ccc(C2CCCCC2)cc1 | 5
94 | CC(C)CCCCCCCCCCO | 5
95 | O=[N+]([O-])c1ccc(C(O)C(CO)N=Cc2ccc(N(CCCl)CCCl)cc2)cc1 (stereo not given) | 5
96 | CC(=O)Oc1ccc(C(c2ccc(OS(=O)(=O)O)cc2)c2ccccn2)cc1 (stereo not given) | 5
97 | Cc1ccc(OP(=O)(Oc2ccccc2)Oc2ccccc2)cc1 | 5
98 | CC(C)OC(=O)C(C)(C)Br | 5
99 | CCCN(CCC)c1c([N+](=O)[O-])cc(S(C)(=O)=O)cc1[N+](=O)[O-] | 5
100 | CNC(=O)Oc1cc(C)cc(C)c1C | 3
101 | O=C(O)COc1ccc(Cl)cc1CO | 5
102 | CCCCCCCCCCCCCCCCCC(=O)OC | 5
103 | CCCCCCCCCCCCCCCCN(C)C | 5
104 | CCOC(C)C(C=NNC(N)=S)=NNC(N)=S (stereo not given) | 5
105 | CCCOC(=O)C(C(=O)OCCC)=C1SC2C(S1)N(C)CCN2C (stereo not given) | 4
106 | C[C@]12Cc3nonc3C[C@@H]1CC[C@@H]1[C@@H]2CC[C@@]2(C)[C@H]1CC[C@]2(C)O | 5
107 | COc1cccc(N(C)C(=S)Oc2ccc3c(c2)CCCC3)n1 | 5
108 | CC(C)=CCC/C(C)=C/C(=O)OCCC(C)C | 5
109 | Cn1ccnc1Cc1nn[nH]n1 | 5
110 | CC(C)(C)C1=CC(=Cc2ccccc2)C=C(C(C)(C)C)C1=O | 5
